Entries after “also recorded” stand apart in the source; their conditions may differ. Peptide text beside a SMILES is read from it. * marks the point of attachment. Cbz = O=C(OCc1ccccc1)*
Tested on: Ub^G76V-GFP reporter (ubiquitin-proteasome system) in transiently transfected cells
Assay: UPS reporter assay (Ub^G76V-GFP, flow cytometry), functionality control with proteasomal inhibitor
Assay type: cell-based
Conditions: 5 μM MG-132, 24 hours
Protocol: FIGS. 12A-12C show flow-cytometric analysis of untransfected cells (12A), Ub^G76V-GFP transfected cells (12B), and Ub^G76V-GFP transfected cells treated for 24 hours with 5 μM of the proteasomal inhibitor, MG-132 (12C).
Experiments were conducted during development of embodiments of the present invention to investigate the functional consequences of the mutant ubiquilin2 in protein degradation through the ubiquitin-proteasome system (UPS) was investigated. The UPS reporter substrate Ubiquitin^G76V-Green Fluorescent Protein (Ub^G76V-GFP) was used to test the effects of mutant ubiquilin2 on the ubiquitin-mediated protein degradation. Two mutations at two different sites were tested (P497H and P506T) using the Ub^G76V-GFP reporter system. […]
SH-SYSY and Neuro2a cells were grown in 24-well plates and double-transfected with the UPS reporter (20) vector containing UbG76V-GFP (Addgene plasmid #11941) and a dual expression vector containing DsRed2 with either wild-type or mutant Ubiquilin 2. […] All flow cytometric data were collected and analyzed using a MoFlo cell sorter and Summit software (DakoCytomation, Fort Collins, Colo.). […] At least 500 such events were recorded. […]

CC(C)C[C@@H](C=O)NC(=O)[C@H](CC(C)C)NC(=O)[C@H](CC(C)C)NC(=O)OCc1ccccc1 [MG-132] (Cbz-Leu-Leu-Leu-aldehyde)
GFP fluorescence (FL1) intensity / accumulation of the Ub^G76V-GFP signal: marked increase in GFP fluorescence (FL1) intensity; also recorded: remarkable accumulation of the Ub^G76V-GFP signal

Reference: patent US11041205B2, “Molecular targets for ALS and related disorders” (Northwestern University, priority 2010, dated 2021)
